Measured values reported in patent US8987335B2, “Substituted (E)-N′-(1-phenylethylidene)benzohydrazide analogs as histone demethylase inhibitors” (University of Utah Research Foundation, priority 2011, dated 2015).

Columns and labels:
MAO A = MAO A (Homo sapiens (Human), UniProt P21397); assay: Monoamine Oxidase assay (MAO-Glo), MAO A; type: biochemical
Protocol: (§1) Recombinant (expressed in baculovirus infected BTI insect cells) monoamine oxidase A and monoamine oxidase B (Catalog No. M7316 and M7441, respectively) were purchased from Sigma-Aldrich Co. LLC. […] MAO-Glo™ Assay Kit was purchased from Promega Corporation (Madison, Wis.).
(§2) Briefly, 6.25 μL of test compound was added to each well of a 384-well plate. Enzyme (either MAO A or B) was added (12.5 μL in 2× buffer containing 1 μg protein) and allowed to incubate for 5 minutes. Finally, 6.25 μL of 4×MAO substrate was added to each well. Following a one hour incubation, 25 μL of Luciferin detection reagent was added to each well, and incubated for 20 minutes. Luminescence was then measured on an Envision microplate reader.
(§3) IC50 values are determined using GraphPad Prism 5 software. The data were entered as an X-Y plot into the software as percent inhibition for each concentration of the drug. The concentration values of the drug were log transformed and the nonlinear regression was carried out using the “sigmoidal dose-response (variable slope)” option within the GraphPad software to model the data and calculate IC50 values.

MAO B = MAO B (Homo sapiens (Human), UniProt P27338); assay: Monoamine Oxidase assay (MAO-Glo), MAO B; type: biochemical
Protocol: as §1, §2, §3

T-47D cells = assay: Cell Viability Assay (ATPlite), T-47D; type: cell-based; settings: Homo sapiens, T47D, 96-hours of incubation, read-out: Cell Growth, IC50
Protocol: Cells were cultured according to the procedures provided. […] Cells were cultured at 37° C. and 5% CO2.
as §3

LSD1 = LSD1 (Homo sapiens (Human), UniProt O60341); assay: LSD1 Histone Demethylase Assay (LSD1 Inhibitor Screening Assay Kit); type: biochemical; settings: for LSD1 biochemical activity (in words): SAR discussion
Protocol: Briefly, test compounds were diluted to 20× the desired test concentration in 100% DMSO and 2.5 μL of the diluted drug sample was added to a black 384-well plate. The LSD1 enzyme stock was diluted 17-fold with assay buffer and 40 μM of the diluted LSD1 enzyme was added to the appropriate wells.
as §3

MDA-MB-235 = assay: Cell Viability Assay (ATPlite), MDA-MB-235; type: cell-based; settings: 96-hours of incubation, read-out: Cell Growth, IC50
Protocol: Cancer cell lines were obtained from ATCC. Cells were cultured according to the procedures provided. In addition to the supplements indicated in Table 4, media were also supplemented with 1% penicillin/streptomycin (100 IU/mL penicillin and 100 μg/mL streptomycin). Cells were cultured at 37° C. and 5% CO2. ATCC is the American Type Culture Collection (Manassas, Va.).
Cell viability was determined using ATPlite™ Luminescence Assay System (PerkinElmer Inc., Waltham, Mass.) using the various cell-lines described above and in Table 4. Briefly, cells were seeded in 96-well plates and then treated with different concentrations of inhibitor (0.1% final DMSO concentration). After 96-hours of incubation, ATPlite detection reagent was added directly to the culture well. Luminescence was read 5 minutes later on an Envision microplate reader.

MAO B, sequence (P27338 whole entry): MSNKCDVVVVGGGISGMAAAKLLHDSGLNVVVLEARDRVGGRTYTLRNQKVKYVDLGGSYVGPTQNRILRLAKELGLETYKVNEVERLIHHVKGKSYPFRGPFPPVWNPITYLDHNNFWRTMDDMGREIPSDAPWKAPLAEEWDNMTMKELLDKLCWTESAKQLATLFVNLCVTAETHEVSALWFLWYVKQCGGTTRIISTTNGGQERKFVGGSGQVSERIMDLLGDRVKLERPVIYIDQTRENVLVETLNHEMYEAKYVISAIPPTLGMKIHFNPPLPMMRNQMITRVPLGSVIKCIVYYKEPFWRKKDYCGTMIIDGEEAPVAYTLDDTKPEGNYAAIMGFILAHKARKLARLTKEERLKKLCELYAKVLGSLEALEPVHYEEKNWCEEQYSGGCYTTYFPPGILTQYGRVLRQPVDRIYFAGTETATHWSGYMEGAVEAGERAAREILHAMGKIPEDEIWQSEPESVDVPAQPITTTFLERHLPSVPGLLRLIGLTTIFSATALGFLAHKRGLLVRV
MAO A, sequence (P21397 whole entry): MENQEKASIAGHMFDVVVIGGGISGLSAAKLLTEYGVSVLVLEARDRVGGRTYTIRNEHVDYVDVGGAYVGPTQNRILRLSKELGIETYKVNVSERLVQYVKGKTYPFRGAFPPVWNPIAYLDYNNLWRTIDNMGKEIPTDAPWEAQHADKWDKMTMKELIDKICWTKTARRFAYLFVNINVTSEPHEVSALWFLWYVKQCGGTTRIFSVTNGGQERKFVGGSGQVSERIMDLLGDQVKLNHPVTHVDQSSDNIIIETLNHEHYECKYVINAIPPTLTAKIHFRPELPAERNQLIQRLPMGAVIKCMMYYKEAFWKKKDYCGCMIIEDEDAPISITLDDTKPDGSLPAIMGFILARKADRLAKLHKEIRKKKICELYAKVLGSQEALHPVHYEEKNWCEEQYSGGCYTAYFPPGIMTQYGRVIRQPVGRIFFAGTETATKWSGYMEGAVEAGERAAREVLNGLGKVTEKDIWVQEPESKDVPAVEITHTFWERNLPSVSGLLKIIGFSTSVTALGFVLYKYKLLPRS

| SMILES | IC50 (T-47D cells) | LSD1 biochemical activity (in words) (LSD1) | also measured |
| --- | --- | --- | --- |
| O=C(N/N=C/c1ccccc1O)c1ccc(O)cc1 [Compound 1] | – | – | activity against MAO A (in words) (MAO A): no activity; activity against MAO B (in words) (MAO B): comparable activity to tranylcypromine |
| COc1ccc(Cl)cc1C(=O)NNC(=O)c1cc(S(=O)(=O)N2CCOCC2)ccc1F [Compound 6] | > 10000 nM | lack of biochemical activity | – |
| O=C(NNC(=O)c1cc(S(=O)(=O)N2CCOCC2)ccc1F)c1cccc(Cl)c1 [Compound 7] | > 10000 nM | – | – |
| CCN(CC)S(=O)(=O)c1ccc(F)c(C(=O)NNC(=O)c2ccc(C)cc2)c1 [Compound 8] | > 10000 nM | lower activity | – |
| C/C(=N\NC(=O)c1cccc(S(=O)(=O)N2CCOCC2)c1)c1cccc2ccccc12 [Compound 10] | > 10000 nM | lower activity | IC50 (LSD1): > 10000 nM |
| C/C(=N\NC(=O)c1cccc(S(=O)(=O)N2CCOCC2)c1)c1cc(Cl)ccc1O [Compound 12, (E)-N′-(1-(5-chloro-2-hydroxyphenyl)ethylidene)-3-(morpholinosulfonyl)benzohydrazide] | – | – | IC50 (MDA-MB-235): 728 nM; IC50 (MAO A): > 300000 nM; IC50 (MAO B): > 300000 nM |
| C/C(=N\NC(=O)c1cccc(S(=O)(=O)N2CCOCC2)c1)c1ccnc(Cl)c1 [Compound 15, (E)-N′-(1-(2-chloropyridin-4-yl)ethylidene)-3-(morpholinosulfonyl)benzohydrazide] | > 10000 nM | drop in biochemical activity | – |
| C/C(=N\NC(=O)c1cccc(S(=O)(=O)N2CCOCC2)c1)c1cc(Cl)ccc1Cl [Compound 16, (E)-N′-(1-(2,5-dichlorophenyl)ethylidene)-3-(morpholinosulfonyl)benzohydrazide] | > 10000 nM | significant drop in activity | LSD1 biochemical activity (in words) (LSD1; listed as compound 16): activity was decreased |
| C/C(=N\NC(=O)c1ccc(Cl)c(Br)c1)c1cc(Cl)ccc1O [Compound 17, (E)-3-bromo-4-chloro-N′-(1-(5-chloro-2-hydroxyphenyl)ethylidene)benzohydrazide] | 1700 nM | drop in biochemical activity | – |
| C/C(=N\NC(=O)c1cnc(Cl)c(Br)c1)c1cc(Cl)ccc1O [Compound 19, (E)-5-bromo-6-chloro-N′-(1-(5-chloro-2-hydroxyphenyl)ethylidene)nicotinohydrazide] | 1380 nM | drop in biochemical activity | – |
| C/C(=N\NC(=O)c1cncc(Cl)c1)c1cc(Cl)ccc1O [Compound 20, (E)-5-chloro-N′-(1-(5-chloro-2-hydroxyphenyl)ethylidene)nicotinohydrazide] | 270 nM | drop in biochemical activity | – |
| CC/C(=N\NC(=O)c1cccc(S(=O)(=O)N2CCOCC2)c1)c1cc(Cl)ccc1O [Compound 21, (E)-N′-(1-(5-chloro-2-hydroxyphenyl)propylidene)-3-(morpholinosulfonyl)benzohydrazide] | 616 nM | – | – |
| C/C(=N\NC(=O)c1cccc(S(=O)(=O)N2CCOCC2)c1)c1cccnc1 [Compound 22, (E)-3-(morpholinosulfonyl)-N′-(1-(pyridin-3-yl)ethylidene)benzohydrazide] | – | drop in biochemical activity | – |
| C/C(=N\NC(=O)c1cncc(S(C)(=O)=O)c1)c1cc(Cl)ccc1O [Compound 24, (E)-N′-(1-(5-chloro-2-hydroxyphenyl)ethylidene)-5-(methylsulfonyl)nicotinohydrazide] | – | – | activity against MAO A (in words) (MAO A): no activity; activity against MAO B (in words) (MAO B): no activity |
| N[C@@H]1CC1c1ccccc1 (stereo partly drawn) [tranylcypromine, reference compound] | – | – | activity against MAO A (in words) (MAO A): exhibited activity; activity against MAO B (in words) (MAO B): exhibited activity |
